Measurements: patent US6689777B2 (Kenneth S. Warren Institute, priority 2001, dated 2004)
Counter-ions that a name gives are not always drawn. Like-named read-outs stand apart in the source and are kept apart here.

Legend:
P. falciparum [1] = assay: P. falciparum growth in culture ([3H]-hypoxanthine incorporation); type: cell-based; settings: Plasmodium falciparum, read-out: IC50 vs. P. falc.
synthetic hemozoin = assay: Depolymerization of synthetic hemozoin in vitro; type: biochemical; settings: 50 mM test compound, acetate buffer pH 5.0, 37° C., 16 hours
Experimental: This activity is evaluated by incubating a suspension of monomer-free hemozoin at 37° C. with compounds of the present invention for 16 hours. After incubation, hemozoin is separated from any solubilized heme and soluble heme oligomers, the oligomers depolymerized, and the heme present in the supernatants determined.
The synthesis of synthetic hemozoin is carried out as previously described (26). In brief, 60 μmoles of hematin was dissolved in 8 ml of 0.1N NaOH. Following dissolution 49 mmoles of glacial acetic acid was added and the suspension heated at 70° C. overnight. The precipitate was then washed extensively with LPS-free water. In order to remove unreacted heme the precipitate was extracted with 0.1M sodium bicarbonate (pH 9.1) for three hours. The remaining insoluble material was recovered by centrifugation, resuspended in EtOH and transferred to sterile Eppendorf tubes. The material was washed several times in EtOH and finally resuspended in LPS-free double-distilled H2O. The hemozoin preparation was then tested for endotoxin by using the Limulus Amebocyte Lysate test following manufacturer's instructions. Although the preparation of LPS-free hemozoin from native or synthetic sources is not critical for in vitro depolymerization studies, it is critical for studies involving monocytes and animals (see Examples below). Small amounts of LPS can evoke a considerable cytokine response and interfere with interpretation of results. The amount of heme in the final product was determined from a small aliquot using the pyridine-hemochrome method as previously described (26). The preparations are stored at 4° C. until used.
A suspension of monomer-free hemozoin (equivalent to 2 mM free heme) as prepared above was incubated at 37° C. with […] test compound in total volume of 500 μl in acetate buffer (pH: 5.0) in siliconized Eppendorf tubes (Brinkmann Instruments, Westbury, N.Y.) for 16 hours. A control sample containing distilled H2O instead of hemozoin was included. The samples were centrifuged at 14,000 rpm (Eppendorf centrifuge model 5415C, Brinkmann Instruments, Westbury, N.Y.) for 20 min; then 225 μl supernatant was diluted in 175 μl acetate buffer (pH 5.0). Another 225 μl was added to 175 μl 0.5 M NaOH to dissolve possible oligomeric depolymerization products to monomers. Half of the pellet was washed twice for 2.5 hr in 200 μl 2.5% SDS (v/v) in dH2O, the other half was washed twice in 200 μl HCO3^− buffer (pH: 9.1). Both sample supernatants and SDS and HCO3^− buffer supernatants were centrifuged 14,000 rpm for 20 min. and supernatants were added to 10 μl sodium dithionite (200 mg/ml dH2O) to reduce the heme monomers in solution to Fe^2+. All samples were measured in triplicate at 540 nm (Model UV1601 spectrophotometer, Shimradzu Corp, Columbia, Md.). The OD obtained from the blind sample was subtracted from the OD of the hemozoin containing sample.

P. falciparum [2] = assay: P. falciparum growth in culture ([3H]-hypoxanthine incorporation); type: cell-based; settings: [3H]-hypoxanthine incorporation, read-out: IC50 vs. P. falc.
Experimental: To determine the effectiveness of the compounds of the present invention against the erythrocytic stage of the malarial parasite, P. falciparum was grown in human erythrocyte suspensions and maintained at 37° C. in candle jars according to the method of Trager and Jensen (15,16). Parasites were stage-synchronized by incubating mainly ring-stage infected erythrocytes in 5% sorbitol for 10 minutes at room temperature (17). Cultures undergo one growth cycle (2 days) before use. Strains used include the chloroquine sensitive strains D10 and HB3, and the chloroquine resistant isolates Dd2 and FCR.
Parasite growth was determined by measuring incorporation of [^3H]-hypoxanthine into the nucleic acids of the parasite (18). Effects of the compounds of the present invention on parasite growth was determined by measuring the reduction in incorporation of radiolabel as compared to controls. Briefly, assays are performed in 96-well microtiter plates. After 24 h of candle jar incubation at 37° C., [^3H]-hypoxanthine is added to each well. After 18 h the plates are harvested onto glass fiber filter 96 well plates using a cell harvester, dried, and the amount of radioactivity is determined. Drug IC50 values (molar concentration which decreases [^3H]-hypoxanthine incorporation by 50% as compared to drug-free controls) are calculated by extrapolation of the log dose-response curves using curve fitting software (Origin, Microcal Software, Northampton, Mass.).
Parasites were grown in A^+ human erythrocyte suspensions using RPMI-1640 (GIBCO, Gaithersburg, Md.) medium supplemented by 25 mM HEPES (pH 7.35), 0.2% NaHCO3 (23 mM), 0.2% (D)-Glucose and 10% human A^+ plasma and maintained at 37° C. in candle jars according to the method of Trager and Jensen (20,21) Parasites are stage synchronized by incubating mainly ring-stage infected erythrocytes in 5% sorbitol for 10 minutes at room temperature (22). Cultures undergo one growth cycle (2 days) before use. Strains used include the chloroquine sensitive strains D10 and HB3, and the chloroquine resistant isolates Dd2 and FCR.
Parasite growth was determined by measuring incorporation of [^3H]-hypoxanthine into the nucleic acids of the parasite as previously described (23). Effects of the compounds of the present invention on parasite growth was determined by measuring the reduction in incorporation of radiolabel as compared to controls. Briefly, assays were performed in 96-well microtiter plates, each well containing 200 μl of synchronized ring-stage infected erythrocytes in complete media and 50 μl of drug dilution or solvent. The final hematocrit was 1.5% and percent parasitemias range from 2-8%. After 24 h of candle jar incubation at 37° C., 2.5 μCi of [^3H]-hypoxanthine (17 Ci/mmol, Amersham, Arlington Heights, Ill.) in RPMI-1640 media supplemented with 25 mM HEPES (pH 7.35), 0.2% NaHCO3 (23 mM), 0.2% (D)-Glucose is added to each well. After 18 h the plates were harvested onto glass fiber filter 96 well plates using a cell harvester, dried, and 25 μl scintillation acid added per well. The, amount of radioactivity was determined. Drug IC50 values (molar concentration which decreases [^3H]-hypoxanthine incorporation by 50% as compared to drug-free controls) are calculated by extrapolation of the log dose-response curves using curve fitting software (Origin, Microcal Software, Northampton, Mass.). The effects on parasite grown by aromatic guanyllhydrazones, bisguanylhydrazones, naphthothiazolium salts, and other compounds of the instant invention, together with data on hemozoin depolymerization from Example 5, are shown in tables 1 through 4, respectively.

[3] = Table 1, aryl monoguanylhydrazones, growth in culture
[4] = Table 3, naphthothiazolium salts, in culture

| Structure (SMILES) | IC50 (P. falciparum [1]; [3]) [µM] | IC50 (P. falciparum [1]; [4]) [µM] | % depol. hemoz. (synthetic hemozoin; Table 3) [%] | % depol. hemoz. (synthetic hemozoin; Table 1) [%] | further results |
| --- | --- | --- | --- | --- | --- |
| CC(=NNC(=N)N)c1cccc(-c2cc(C)n(C)c(=N)n2)c1 [2-[[3-(3,4-dimethyl-2(3H)-imino-6-pyrimidinyl)phenyl]ethylidene]hydrazinecarboximidamide hydrochloride hydroiodide] |  |  |  |  | IC50 (P. falciparum [2]; [3]): 1.05 µM |
| CC(=NNC(=N)N)c1ccc(-c2cc(C)n(C)c(=N)n2)cc1 [2-[[4-(3,4-dimethyl-2(3H)-imino-6-pyrimidinyl)phenyl]ethylidene]hydrazinecarboximidamide hydrochloride hydroiodide] |  |  |  |  | IC50 (P. falciparum [2]; [3]): 0.6 µM |
| CCNc1sc2c(C)c(O)c3ccccc3c2[n+]1CC.[Cl-] [1-ethyl-2-(ethylimino)-1,2-dihydro-4-methylnaphtho[1,2-d]thiazol-5-ol monohydrochloride] |  | 2.5 | 2.4 |  |  |
| Cl.N=C(N)NN=CCc1ccccc1O [2-[(2-hydroxyphenyl)ethylidene]hydrazinecarboximidamide hydrochloride] | > 10 |  |  | 0.4 |  |
| Cc1c(O)c2ccccc2c2sc(NCCCN3CCOCC3)nc12 [4-methyl-2-[[3-(4-morpholino)propyl]amino]naphtho[1,2-d]thiazol-5-ol dihydrochloride] |  |  |  |  | IC50 (P. falciparum [2]; [4]): 0.6 µM |
| Cl.N=C(N)NN=Cc1cccc(O)c1O [2-[(2,3-dihydroxyphenyl)methylene]hydrazinecarboximidamide hydrochloride] | > 10 |  |  | 4.1 |  |
| CC(CCC1=C(C)C(=O)c2ccccc2C1=O)=NNC(=N)N.Cl [2-[3-(1,4-dihydro-1,4-dioxo-3-methyl-2-naphthalenyl)-1-methylpropylidene]hydrazinecarboximidamide hydrochloride] |  |  |  |  | % depol. hemoz. (synthetic hemozoin; Table 4): 0.1%; IC50 (P. falciparum [1]; Table 4, in culture): 1.3 µM |
| Cc1c(O)c2ccccc2c2nc(Nc3ccccc3)sc12.Cl [1,2-dihydro-4-methyl-2-(phenylimino)naphtho[1,2-d]thiazol-5-ol monohydrochloride] |  | 4.2 | 0.0 |  |  |
| COc1ccc(O)c(C=NNC(=N)N)c1.Cl [2-[(2-hydroxy-5-methoxyphenyl)methylene]hydrazinecarboximidamide hydrochloride] | 4.4 |  |  | 0.9 |  |
| Cl.Cl.N=C(N)NN=C1CCC(=NNC(=N)N)CC1 [2,2′-(1,4-cyclohexanediylidene)bis(hydrazinecarboximidamide) dihydrochloride] |  |  |  |  | % depol. hemoz. (synthetic hemozoin; Table 4): 0%; IC50 (P. falciparum [1]; Table 4, in culture): 2 µM |
| CC(=NNC(=N)N)c1ccc(OCc2ccccc2)c(C)c1O.Cl [2-[1-(4-benzyloxy-2-hydroxy-3-methylphenyl)ethylidene]hydrazinecarboximidamide hydrochloride] | 1.33 |  |  | 1.9 |  |
| Cc1c(O)c2ccccc2c2c1sc(NCCO)[n+]2C.[Cl-] [1,2-dihydro-2-[(2-hydroxyethyl)imino]-1,4-dimethylnaphtho[1,2-d]thiazol-5-ol monohydrochloride] |  | 1.4 | 3.1 |  |  |
| C=CCNc1sc2c(C)c(O)c3ccccc3c2[n+]1CC=C.[Cl-] [1,2-dihydro-4-methyl-1-(2-propenyl)-2-(2-propenylimino)naphtho[1,2-d]thiazol-5-ol monohydrochloride] |  | 6 | 4.8 |  |  |
| COc1ccc(C=NNC(=N)N)c(O)c1 [2-[(2-hydroxy-4-methoxyphenyl)methylene]hydrazinecarboximidamide hydrochloride] | 1 |  |  |  |  |
| C/C(=N\NC(=O)CN(C)C)c1cccc(/C(C)=N/NC(=O)CN(C)C)n1.Cl.Cl [2,6-bis[1-[[(dimethylamino)acetyl]hydrazono]ethyl]pyridine dihydrochloride] |  |  |  |  | % depol. hemoz. (synthetic hemozoin; Table 4): 0%; IC50 (P. falciparum [1]; Table 4, in culture): 1.5 µM |

Continued, in another order:

| IC50 (P. falciparum [1]; [3]) [µM] | IC50 (P. falciparum [1]; [4]) [µM] | Structure (SMILES) | % depol. hemoz. (synthetic hemozoin; Table 3) [%] | % depol. hemoz. (synthetic hemozoin; Table 1) [%] | further results |
| --- | --- | --- | --- | --- | --- |
| 6 |  | N=C(N)NN=CCc1ccc2ccccc2c1O [2-[(1-hydroxy-2-naphthyl)ethylidene]hydrazinecarboximidamide hydrochloride] |  |  |  |
|  | 6.3 | C=CCNc1nc2c(s1)c(C)c(O)c1ccccc12.Cl [4-methyl-2-(2-propenylamino)naphtho[1,2-d]thiazol-5-ol monohydrochloride] | 0.4 |  |  |
| 1.8 |  | CC1=CC(=O)c2cc(CC=NNC(=N)N)ccc2C1=O.Cl [2-[(1,4-dihydro-1,4-dioxo-3-methyl-7-naphthalenyl)ethylidene]hydrazinecarboximidamide hydrochloride] |  | 0.4 |  |
| > 10 |  | Cl.N=C(N)NN=CCc1ccc(O)c(O)c1 [2-[(3,4-dihydroxyphenyl)ethylidene]hydrazinecarboximidamide hydrochloride] |  | 0.5 |  |
|  | 1 | Cc1c(O)c2ccccc2c2c1sc(NC1CCCCC1)[n+]2CCO.[Cl-] [2-(cyclohexylimino)-5-hydroxy-4-methylnaphtho[1,2-d]thiazole-1(2H)-ethanol monohydrochloride] | 0.4 |  |  |
|  | > 10 | Cc1c(O)c2ccccc2c2c1sc(Nc1ccccc1)[n+]2C.[Cl-] [1,2-dihydro-1,4-dimethyl-2-(phenylimino)naphtho[1,2-d]thiazol-5-ol monohydrochloride] | 0.0 |  |  |
| 3.5 |  | Cl.N=C(N)NN=Cc1ccccc1O [2-[(2-hydroxyphenyl)methylene]hydrazinecarboximidamide hydrochloride] |  | 3.5 |  |
| 3.4 |  | N=C(N)NN=Cc1ccnc2ccccc12 [2-[(4-quinolinyl)methylene]hydrazinecarboximidamide hydrochloride] |  |  |  |
